29 molecules from patent US8252940B2, “5-substituted-2-imino-thiazolidinone compounds and their use as inhibitors of bacterial infection” (University of Washington, priority 2008, dated 2012) can be followed below.

The test system of the test is type III secretion in S. typhimurium. As to the kind of experiment: microbe, parasite or virus in culture. The conditions noted are these: for inhibition at 33 µM / inhibition at 330 µM / inhibition at 3.3 µM: read-out: % inhibition of SipA secretion; for % Secretion: type III secretion in S. typhimurium, SipA secretion by Western blot. The test is classed as cell-based, Salmonella enterica serovar Typhimurium.

Setting [1] is: Salmonella enterica, TYPHIMURIUM

The inhibition is the drop in the measured response relative to a control, in per cent.

Regarding `COc1cc(/C=C2\S/C(=N\c3ccccc3)N(C(C(=O)N[C@@H](Cc3ccc(O)cc3)C(N)=O)C(C)C)C2=O)cc(OC)c1O` (single isomer, unassigned) [compound 69], under setting [1], the inhibition at 33 µM was found to be 32% and the inhibition at 330 µM came to 97%.
On to `COc1cc(/C=C2\S/C(=N\c3ccccc3)N([C@@H](C)C(=O)N[C@@H](CCCNC(=N)N)C(N)=O)C2=O)cc(OC)c1O` [Compound 2], for which the “% Secretion” value turned out to be 0 ± 0%. The “SipA detected in the supernate” value (3.8 μM, Western blot) was “minimal SipA was detected”. For the same molecule, the inhibition at 38 µM (Salmonella enterica, TYPHIMURIUM, read-out: inhibition of detectable secreted SipA) came to 100%.
`COc1ccc(N2C(=O)/C(=C/c3cc(OC)c(O)c(OC)c3)S/C2=N\c2ccccc2)cc1` [Compound 3]: the “% Secretion” value is 0 ± 0%.
As to `COc1cc(/C=C2\S/C(=N\c3ccccc3)NC2=O)cc(OC)c1O` [Compound 4], the “% Secretion” value was determined as 9 ± 6%.
On to `COc1cc(/C=C2\SC(=N)N(c3ccccc3)C2=O)cc(OC)c1O` [Compound 5], for which the “% Secretion” value turned out to be 81.2 ± 0%.
On the same count and under the same terms, under `COc1cc(/C=C2\SC(=N)NC2=O)cc(OC)c1O` [Compound 6] stands 64 ± 4%; under `O=C1/C(=C/c2ccccc2)S/C(=N\c2ccccc2)N1c1ccccc1` [Compound 7], 90 ± 2%; under `O=C1CS/C(=N\c2ccccc2)N1c1ccccc1` [Compound 8], 62 ± 3%.
The same measure, in the same setting: under `COc1cc(CC2SC(=N)NC2=O)cc(OC)c1O` (centres unmarked) [Compound 9] stands 72 ± 0%.
Regarding `COc1cc(/C=C2\S/C(=N\c3ccccc3)N(CCCCCCN)C2=O)cc(OC)c1O` [compound 45, (2Z,5Z)-3-(6-aminohexyl)-5-(4-hydroxy-3,5-dimethoxybenzylidene)-2-(phenylimino)-thiazolidin-4-one], under setting [1], the inhibition at 3.3 µM was determined as 12%, the inhibition at 33 µM amounted to 42% and the inhibition at 330 µM came to 95%.
As for `COc1cc(/C=C2\S/C(=N\c3ccc(CN)cc3)N(c3ccccc3)C2=O)cc(OC)c1O` [compound 46, (2Z,5Z)-2-(4-(aminomethyl)phenylimino)-5-(4-hydroxy-3,5-dimethoxybenzyldene)-3-phenylthiazolidin-4-one], the “% inhibition of SipA secretion” value is, setting by setting: (3.3 μM, Western blot) 7%; (33 μM, Western blot) 16%; (330 μM, Western blot) 85%.
In the same order, the values of `COc1cc(/C=C2\S/C(=N\c3ccc(CN)cc3)N(c3ccccc3)C2=O)cc(OC)c1O` [compound 47, (2Z,5Z)-3-(4-(aminomethyl)phenylimino)-5-(4-hydroxy-3,5-dimethoxybenzyldene)-2-phenylthiazolidin-4-one] are 8%, 35% and 100%.
For the molecule `COc1cc(/C=C2\S/C(=N\c3ccccc3)N([C@@H](C)C(=O)N[C@@H](C)C(N)=O)C2=O)cc(OC)c1O` [compound 49, (S)-N-((S)-1-amino-1-oxopropan-2-yl)-2-((2Z,5Z)-5-(4-hydroxy-3,5-dimethoxybenzylidene)-4-oxo-2-(phenylimino)thiazolidin-3-yl)propanamide], under setting [1], the inhibition at 33 µM stood at 26% and the inhibition at 330 µM was 94%.
As to `COc1cc(/C=C2\S/C(=N\c3ccccc3)N([C@@H](C)C(=O)N[C@@H](Cc3ccc(O)cc3)C(N)=O)C2=O)cc(OC)c1O` [compound 50, (S)-N-((S)-1-amino-3-(4-hydroxyphenyl)-1-oxopropan-2-yl)-2-((2Z,5Z)-5-(4-hydroxy-3,5-dimethoxybenzylidene)-4-oxo-2-(phenylimino)thiazolidin-3-yl)propanamide], the inhibition at 330 µM under setting [1] amounted to 90%.
Same read-out and setting: under `COc1cc(/C=C2\S/C(=N\c3ccccc3)N(C(C)C(=O)N[C@@H](Cc3c[nH]c4ccccc34)C(N)=O)C2=O)cc(OC)c1O` (stereo partly drawn) [compound 51, N-((S)-1-amino-3-(1H-indol-3-yl)-1-oxopropan-2-yl)-2-((2Z,5Z)-5-(4-hydroxy-3,5-dimethoxybenzylidene)-4-oxo-2-(phenylimino)thiazolidin-3-yl)propanamide] stands 100%; under `COc1cc(/C=C2\S/C(=N\c3ccccc3)N([C@H](C)C(=O)N[C@@H](Cc3c[nH]c4ccccc34)C(N)=O)C2=O)cc(OC)c1O` [compound 52, (R)-N-((S)-1-amino-3-(1H-indol-3-yl)-1-oxopropan-2-yl)-2-((2Z,5Z)-5-(4-hydroxy-3,5-dimethoxybenzylidene)-4-oxo-2-(phenylimino)thiazolidin-3-yl)propanamide], 100%.
The same measure, in the same setting: to `COc1cc(/C=C2\S/C(=N\c3ccccc3)N([C@@H](C)C(=O)N[C@@H](CCCN)C(N)=O)C2=O)cc(OC)c1O` [compound 54, (S)-5-amino-2-((S)-2-((2Z,5Z)-5-(4-hydroxy-3,5-dimethoxybenzylidene)-4-oxo-2-(phenylimino)thiazolidin-3-yl)propanamido)pentanamide] belongs 94%.
Take `COc1cc(/C=C2\S/C(=N\c3ccccc3)N([C@@H](C)C(=O)N[C@@H](CCCNC(=N)N)C(N)=O)C2=O)cc(OC)c1O` [compound 56, (S)-5-Guanidino-2-((S)-2-((2Z,5Z)-5-(4-hydroxy-3,5-dimethoxybenzylidene)-4-oxo-2-(phenylimino)thiazolidin-3-yl)propanamido)pentanamide]: under setting [1], the inhibition at 33 µM was determined as 1% and the inhibition at 330 µM was 100%.
For `COc1cc(/C=C2\S/C(=N\c3ccccc3)N(CC(=O)O)C2=O)cc(OC)c1O` [compound 57, 2-((2Z,5Z)-5-(4-hydroxy-3,5-dimethoxybenzylidene)-4-oxo-2-(phenylimino)thiazolidin-3-yl)acetic acid], under setting [1], the inhibition at 3.3 µM stood at 51% and the inhibition at 330 µM came out at 100%.
Take `COc1cc(/C=C2\S/C(=N\c3ccccc3)N(CCCC(=O)OC(C)(C)C)C2=O)cc(OC)c1O` [compound 60, t-Butyl-4-((2Z,5Z)-5-(4-hydroxy-3,5-dimethoxybenzylidene)-4-oxo-2-(phenylimino)thiazolidin-3-yl)butanoate]: under setting [1], the inhibition at 3.3 µM worked out at 35% and the inhibition at 330 µM was 90%.
As to `COc1cc(/C=C2\S/C(=N\c3ccccc3)N(CCCC(=O)O)C2=O)cc(OC)c1O` [compound 61, 4-((2Z,5Z)-5-(4-hydroxy-3,5-dimethoxybenzylidene)-4-oxo-2-(phenylimino)thiazolidin-3-yl)butanoic acid], under setting [1], the inhibition at 3.3 µM stood at 70% and the inhibition at 330 µM was 74%.
In the same order, the values of `COc1cc(/C=C2\S/C(=N\c3ccccc3)N([C@H](C)C(=O)N[C@@H](CCCN)C(N)=O)C2=O)cc(OC)c1O` [compound 84, (S)-5-amino-2-((R)-2-((2Z,5Z)-5-(4-hydroxy-3,5-dimethoxybenzylidene)-4-oxo-2-(phenylimino)thiazolidin-3-yl)propanamido)pentanamide] are 5% and 99%.
`COc1cc(/C=C2\S/C(=N\c3ccccc3)N([C@H](C)C(=O)N[C@@H](CCCNC(=N)N)C(N)=O)C2=O)cc(OC)c1O` [compound 85, (S)-5-guanidino-2-((R)-2-((2Z,5Z)-5-(4-hydroxy-3,5-dimethoxybenzylidene)-4-oxo-2-(phenylimino)thiazolidin-3-yl)propanamido)pentanamide]: under setting [1], the inhibition at 33 µM was 31% and the inhibition at 330 µM was found to be 99%.
Turning to `COc1cc(/C=C2\S/C(=N\c3ccccc3)N([C@@H](CCCN)C(=O)N[C@@H](C)C(N)=O)C2=O)cc(OC)c1O` [compound 86], the “% inhibition of SipA secretion” value (3.3 μM, Western blot) was 19%; the “% inhibition of SipA secretion” value (33 μM, Western blot) turned out to be 46%; the “% inhibition of SipA secretion” value (330 μM, Western blot) amounted to 100%.
For `COc1cc(/C=C2\S/C(=N\c3ccccc3)N([C@@H](CCCNC(=N)N)C(=O)N[C@@H](C)C(N)=O)C2=O)cc(OC)c1O` [compound 87, (S)-N-((S)-1-amino-1-oxopropan-2-yl)-5-guanidino-2-((2Z,5Z)-5-(4-hydroxy-3,5-dimethoxybenzylidene)-4-oxo-2-(phenylimino)thiazolidin-3-yl)pentanamide], under setting [1], the inhibition at 3.3 µM worked out at 0%, the inhibition at 33 µM came to 38% and the inhibition at 330 µM came to 100%.
With `COc1cc(/C=C2\S/C(=N\c3ccccc3)N(C(CCCNC(=N)N)C(=O)N3Cc4ccccc4C[C@H]3C(N)=O)C2=O)cc(OC)c1O` (stereo partly drawn) [compound 88, (S)-2-(5-guanidino-2-((2Z,5Z)-5-(4-hydroxy-3,5-dimethoxybenzylidene)-4-oxo-2-(phenylimino)thiazolidin-3-yl)pentanoyl)-1,2,3,4-tetrahydroisoquinoline-3-carboxamide], under setting [1], the inhibition at 33 µM is 0% and the inhibition at 330 µM turned out to be 100%.
As for `COc1cc(/C=C2\SC(=Nc3ccccc3)N([C@@H](CCCN)C(=O)N[C@@H](CC3CNc4ccccc43)C(N)=O)C2=O)cc(OC)c1O` (stereo partly drawn) [compound 90, (S)-5-amino-N-((S)-1-amino-3-(indolin-3-yl)-1-oxopropan-2-yl)-2-((5Z)-5-(4-hydroxy-3,5-dimethoxybenzylidene)-4-oxo-2-(phenylimino)thiazolidin-3-yl)pentanamide], under setting [1], the inhibition at 3.3 µM is 20%, the inhibition at 33 µM stood at 22% and the inhibition at 330 µM is 100%.
Take `COc1cc(/C=C2\S/C(=N\c3ccccc3)N([C@@H](CCCN)C(=O)N[C@@H](Cc3ccc(-c4ccccc4)cc3)C(N)=O)C2=O)cc(OC)c1O` [compound 91]: the “% inhibition of SipA secretion” value is recorded as 100 (330) 66 (33) 3 (3.3) % (3.3 µM), 100 (330) 66 (33) 3 (3.3) % (33 µM) and 100 (330) 66 (33) 3 (3.3) % (330 µM).
Regarding `COc1cc(/C=C2\S/C(=N\c3ccccc3)N(C(CCCNC(=N)N)C(=O)N3CSC[C@H]3C(N)=O)C2=O)cc(OC)c1O` (stereo partly drawn) [compound 94, (R)-3-(5-guanidino-2-((2Z,5Z)-5-(4-hydroxy-3,5-dimethoxybenzylidene)-4-oxo-2-(phenylimino)thiazolidin-3-yl)pentanoyl)thiazolidine-4-carboxamide], under setting [1], the inhibition at 3.3 µM came to 3%, the inhibition at 33 µM came out at 7% and the inhibition at 330 µM was 89%.
